Results as given in patent US10004718B2, “Erythropoietin expression promoter” (TOHOKU UNIVERSITY, priority 2012, dated 2018).

Key:
[1] = test system: mouse erythropoietin gene promoter; assay: Luciferase reporter assay of erythropoietin gene promoter in Hep3B cells; type: cell-based; conditions: for effect on erythropoietin gene promoter transcriptional activity compared with HIF activator FG-4592: compound 10 μM vs FG-4592 10 μM, 20% O2; for transcription level of the erythropoietin gene promoter: compound 10 μM, 20% O2, 48 hours, vs 20% O2/DMSO
Experimental: A plasmid vector HE-mPro-luc for luciferase assay on the promoter activity of the 5′ upstream transcriptional regulatory region of the mouse erythropoietin gene was prepared by cleaving, with restriction enzymes XbaI and SacI, a region having a length from −571 to +53 bp starting at the translation initiation site of exon 1 of the mouse erythropoietin gene, and inserting this region to a luciferase reporter vector pXP2 (Nordeen S K. BioTechniques. 6: […], 1988).
The Hep3B cells were adjusted to 10×10^4 cells/well in a 24-well cell culture plate and subcultured. Under microscopy, the Hep3B cells that reached a cell density of 70 to 80% were transfected with the plasmid DNA for luciferase reporter assay. The composition of a solution for transfection was prepared by mixing 2 μg of HE-mPro-luc, 50 ng of pRh-TK (manufactured by Promega K.K.), and 2 μl of Lipofectamine 2000 (manufactured by Invitrogen Corp.) with 100 μl of OptiMEM-I (manufactured by Life Technologies, Inc./GIBCO) per well, followed by incubation at room temperature for 20 minutes. The solution was added to the Hep3B cells in the 24-well cell culture plate preincubated in 0.5 ml of serum-free OptiMEM-I medium, and then incubated for 4 hours without serum and antibiotics under conditions of 37° C. and 5% CO2/20% O2. Then, the medium was replaced with RPMI1640 common medium 1 supplemented with each of 5 types of compounds (compounds #2, 4, 5, 18, and 21) at a concentration of 10 μM, followed by further incubation for 48 hours under conditions of 37° C. and 5% CO2/20% O2. Then, the medium was replaced with 0.5 ml of serum-free PBS, and the cells were gently washed, followed by the removal of PBS by suction. This operation was carried out twice. Then, 100 μl of passive lysis buffer (manufactured by Promega K.K.) was added thereto, and the cells were lysed by mixing at room temperature for 20 minutes. Hep3B cells cultured in the absence of the compound (DMSO added [1%]) (“20% O2/DMSO” of FIG. 3) were used as a negative control. Hep3B cells cultured in the presence of an HIF activator (FG-4592 [10 μM]) (“20% O2/FG4592” of FIG. 3) and Hep3B cells cultured under hypoxia (1% O2) conditions and in the absence of the compound (DMSO added [1%]) (“1% O2/DMSO” of FIG. 3) were used as positive controls.
Dual Luciferase Reporter Assay System (manufactured by Promega K.K.) was used in the luciferase reporter assay. The amounts of firefly and Renilla luciferases were measured using a luminometer Lumat LB9507 (manufactured by BERTHOLD TECHNOLOGIES GmbH & Co. KG). The amount of Fire fly luciferase was divided by the amount of Renilla luciferase to calculate the transcriptional activity of the erythropoietin gene.

[2] = test system: mRNA expression of the erythropoietin gene; assay: Quantitative PCR of erythropoietin mRNA in Hep3B cells; type: cell-based, human; conditions: compound 10 μM, 20% O2, GAPDH internal standard
Experimental: Of the 5 types of compounds confirmed in Example 4 to be effective for promoting the transcriptional activity of the erythropoietin gene promoter, 4 types of compounds (compounds #2, 4, 5, and 21) were selected. From Hep3B cells cultured in RPMI1640 common medium 1 supplemented with each of these 4 types of compounds at a concentration of 10 μM, total RNA was extracted using TriPure Isolation Reagent (manufactured by F. Hoffmann La Roche AG) in a 6-well cell culture plate. Hep3B cells cultured in the absence of the compound (DMSO added) (“20% O2/DMSO” of FIG. 4) were used as a negative control. Hep3B cells cultured in the presence of a GATA-specific inhibitor (K7174 [10 μM]) (“20% O2/K7174” of FIG. 4) and Hep3B cells cultured under hypoxia (1% O2) conditions and in the absence of the compound (DMSO added [1%]) (“1% O2/DMSO” of FIG. 4) were used as positive controls.
The extracted RNA was used as a template to synthesize cDNA using SuperScript III RTS First-strand kit (manufactured by Invitrogen Corp.). Then, the expression of the erythropoietin mRNA was measured by quantitative PCR with GAPDH as an internal standard. The quantitative PCR was carried out using TaqMan® Gene Expression Assays (using GAPDH; Assay ID: Rn99999916_s1, and human erythropoietin; Assay ID: Hs00171267_ml TaqMan® probes [manufactured by Applied Biosystems Inc.]) and Step One Plus Real-Time PCR System (manufactured by Applied Biosystems Inc.).

Leigh cells = assay: Cell death caused by oxidative stress (BSO) in Leigh syndrome patient fibroblasts; type: cell-based, human; conditions: compound 10 μM, 4 days after BSO treatment
Experimental: In Examples 2 to 7 and Reference Example 1 below, an erythropoietin-producing human hepatocellular carcinoma cell Hep3B (obtained from ATCC [American Type Culture Collection]) was cultured and maintained under conditions of 5% CO2/20% O2 and 37° C. in an RPMI1640 (manufactured by Life Technologies, Inc./GIBCO) medium containing 100 U/mL penicillin (manufactured by Life Technologies, Inc./GIBCO), 100 μg/mL streptomycin (manufactured by Life Technologies, Inc./GIBCO), and 10% fetal bovine serum (FBS) (manufactured by Life Technologies, Inc./GIBCO) (hereinafter, referred to as “RPMI1640 common medium 1”). In Example 15 below, Leigh syndrome patients were subjected to skin biopsy to obtain skin fibroblast cells, which were then primarily cultured under conditions of 5% CO2/20% O2 and 37° C. in a DMEM low glucose (manufactured by Life Technologies, Inc./GIBCO) medium containing 100 U/mL penicillin (manufactured by Life Technologies, Inc./GIBCO), 100 μg/mL streptomycin (manufactured by Life Technologies, Inc./GIBCO), and 1% FBS (manufactured by Life Technologies, Inc./GIBCO) (hereinafter, referred to as “DMEM low glucose common medium”) to isolate cells (Leigh cells). In Example 13 below, a human kidney-derived cell line HK-2 (obtained from ATCC) was cultured and maintained under conditions of 5% CO2/20% O2 and 37° C. in a DMEM/F12 (manufactured by Life Technologies, Inc./GIBCO) medium containing 100 U/mL penicillin (manufactured by Life Technologies, Inc./GIBCO), 100 μg/mL streptomycin (manufactured by Life Technologies, Inc./GIBCO), and 10% fetal bovine serum (manufactured by Life Technologies, Inc./GIBCO) (hereinafter, referred to as “DMEM/F12 common medium”). In Example 14 below, a rat islet of Langerhans-derived cell line ISN-1e (kindly provided by Hisamitsu Ishihara, Nihon University School of Medicine) was cultured and maintained under conditions of 5% CO2/20% O2 and 37° C. in an RPMI1640 (manufactured by Life Technologies, Inc./GIBCO) medium containing 10 mM HEPES (manufactured by Sigma-Aldrich Corp.), 2 mM glutamine (manufactured by Sigma-Aldrich Corp.), 50 μM β-mercaptoethanol (manufactured by Sigma-Aldrich Corp.), 100 U/mL penicillin (manufactured by Life Technologies, Inc./GIBCO), 100 μg/mL streptomycin (manufactured by Life Technologies, Inc./GIBCO), and 10% FBS (manufactured by Life Technologies, Inc./GIBCO) (hereinafter, referred to as “RPMI1640 common medium 2”).
The Leigh cells were seeded at 4×10^4 cells/well to a 24-well cell culture plate and then cultured for 24 hours. The glutathione synthesis inhibitor BSO (L-buthionine sulphoximine) (manufactured by Sigma-Aldrich Corp.) was mixed at […] into a medium. After culture for 24 hours in the presence of BSO, each of 5 types of compounds (compounds #2, 4, 5, 21, and 35) was mixed at 10 μM into the medium. After culture for 4 days in the presence of these 5 types of compounds, the number of live cells was measured using Cell Counting Kit-8 (manufactured by Dojindo Laboratories) to calculate the survival rate of the cells (“BSO+#2”, “BSO+#4”, “BSO+#5”, “BSO+#21”, and “BSO+#35” of FIG. 17). […]

[3] = test system: ATP production in Hep3B cells; assay: ATP production in Hep3B cells; type: cell-based, human; conditions: for amount of ATP produced (FIG. 8): compound 10 μM, 24 hours, ratio to DMSO = 1; for increase of ATP concentration in cells relative to the normal level: at least in 3 hours
Experimental: The Hep3B cells were seeded at 1×10^4 cells/well to a 24-well cell culture plate and then cultured under normal oxygen (20% O2) for 24 hours. Each of 36 types of compounds (compounds #1 to 15, 17 to 31, and 34 to 39) was mixed at a concentration of 10 μM into RPMI1640 common medium 1. After further culture under normal oxygen (20% […]) for 3 hours, 6 hours, or 24 hours, the concentration of ATP produced in the medium was measured using ATP Assay Reagent of “Cells” (manufactured by Toyo B-Net Co., Ltd.) and GloMa 96 Microplate Luminometer (manufactured by Promega K.K.). Hep3B cells cultured in the absence of the compound (DMSO added [1%]) (“DMSO” of FIGS. 6 to 8) were used as a negative control. Hep3B cells cultured in the presence of HIF activators (FG-4592 [10 μM], DMOG [10 μM], 3,4-DHB [10 μM], and ciclopirox[10 μM]) (“FG”, “DMOG”, “34-DHB”, and “Ciclo”, respectively, of FIGS. 6 to 8) and Hep3B cells cultured in the presence of a transcriptional repressor GATA-specific inhibitor of erythropoietin (K7174 [10 μM]) (“K7174” of FIGS. 6 to 8) were used as positive controls.

melting point [°C] | SMILES | amount of ATP produced (FIG. 8) [3] | other results
 | O=C(CC(C(=O)O)c1c[nH]c2ccccc12)c1ccc(Cl)cc1 (stereo not shown) [compound #2, 4-(4-Chlorophenyl)-2-(1H-indol-3-yl)-4-oxo-butanoic acid] |  | effect on erythropoietin gene promoter transcriptional activity compared with HIF activator FG-4592 [1]: superior to the effect of the existing HIF activator (FG-4592); transcription level of the erythropoietin gene promoter [1]: increase the transcription level; mRNA expression level of the erythropoietin gene [2]: increase the mRNA expression level; cell death of the Leigh cells by BSO (Leigh cells): efficiently suppress the cell death
139 to 141 | CCCn1cc(C(CC(=O)c2ccc(C)cc2C)C(=O)O)c2ccccc21 (stereo not shown) [compound #6, 4-(2,4-Dimethylphenyl)-2-(1-propyl-1H-indol-3-yl)-4-oxo-butanoic acid] |  | 
 | CCC(C)CCC(C(=O)O)c1c[nH]c2ccccc12 (stereo not drawn) [compound #18, α-(3-Methyl-1-pentyl)-3-indoleacetic acid] |  | effect on erythropoietin gene promoter transcriptional activity compared with HIF activator FG-4592 [1]: superior to the effect of the existing HIF activator (FG-4592); transcription level of the erythropoietin gene promoter [1]: increase the transcription level
149 to 150 | O=C(CC(C(=O)O)c1c[nH]c2ccccc12)c1ccccc1 (stereo not shown) [compound #20, 4-Phenyl-2-(1H-indol-3-yl)-4-oxo-butanoic acid] |  | 
 | CCn1cc(CC(=O)O)c2ccccc21 [compound #27, N-Ethyl-3-indoleacetic acid] | enhance the amount of ATP produced | 
 | CCCCn1cc(CC(=O)O)c2ccccc21 [compound #29, N-Butyl-3-indoleacetic acid] | enhance the amount of ATP produced | 
 | CCCCCCn1cc(CC(=O)O)c2ccccc21 [compound #30, N-Hexyl-3-indoleacetic acid] | enhance the amount of ATP produced | 
 | COc1ccc2[nH]cc(CC(=O)O)c2c1 [compound #36, 5-Methoxy-3-indoleacetic acid] |  | increase of ATP concentration in cells relative to the normal level [3]: two or more times the normal level
86 to 92.7 | CCOc1ccc2[nH]cc(CC(=O)O)c2c1 [compound #37, 5-Ethoxy-3-indoleacetic acid] |  | 
133.6 to 136.8 | CCCOc1ccc2[nH]cc(CC(=O)O)c2c1 [compound #38, 5-(1-Propoxy)-3-indoleacetic acid] | enhance the amount of ATP produced | 

SMILES | melting point [°C] | amount of ATP produced (FIG. 8) [3] | other results
CCCCOc1ccc2cccc(CC(=O)O)c2c1 [compound #33, α-(7-Butoxy-1-naphthalenyl)-acetic acid] | 102 to 104 |  | 
CCCCCOc1ccc2cccc(CC(=O)O)c2c1 [compound #34, α-(7-Pentoxy-1-naphthalenyl)-acetic acid] | 104 to 106 |  | increase of ATP concentration in cells relative to the normal level [3]: two or more times the normal level
CCCCOc1ccc2[nH]cc(CC(=O)O)c2c1 [compound #39, 5-(1-Butoxy)-3-indoleacetic acid] | 137.8 to 141.1 |  | 
